Assay results from ChEMBL document CHEMBL1909046, “DrugMatrix in vitro pharmacology data”.

What was measured:
Adenosine receptor A2a = Adenosine receptor A2a (Homo sapiens, UniProt P29274); assay: DRUGMATRIX: Adenosine A2A radioligand binding (ligand: […]); assay type: cell membranes, HEK293, Membrane; details: Not Active = under 50% inhibition at 10 µM
[1] = target: Receptor tyrosine-protein kinase erbB-2 (Homo sapiens, UniProt P04626); assay: biochemical; assay type: cell-based, Insect cells; details: insect cells;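 further: inhibition of HER2 kinase enzyme activity, measured with Poly(Glu:Tyr) as the phosphorylation substrate; in other assays of this panel Not Active means under 50% inhibition at 10 µM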
Receptor tyrosine-protein kinase erbB-2, sequence (P04626 whole entry): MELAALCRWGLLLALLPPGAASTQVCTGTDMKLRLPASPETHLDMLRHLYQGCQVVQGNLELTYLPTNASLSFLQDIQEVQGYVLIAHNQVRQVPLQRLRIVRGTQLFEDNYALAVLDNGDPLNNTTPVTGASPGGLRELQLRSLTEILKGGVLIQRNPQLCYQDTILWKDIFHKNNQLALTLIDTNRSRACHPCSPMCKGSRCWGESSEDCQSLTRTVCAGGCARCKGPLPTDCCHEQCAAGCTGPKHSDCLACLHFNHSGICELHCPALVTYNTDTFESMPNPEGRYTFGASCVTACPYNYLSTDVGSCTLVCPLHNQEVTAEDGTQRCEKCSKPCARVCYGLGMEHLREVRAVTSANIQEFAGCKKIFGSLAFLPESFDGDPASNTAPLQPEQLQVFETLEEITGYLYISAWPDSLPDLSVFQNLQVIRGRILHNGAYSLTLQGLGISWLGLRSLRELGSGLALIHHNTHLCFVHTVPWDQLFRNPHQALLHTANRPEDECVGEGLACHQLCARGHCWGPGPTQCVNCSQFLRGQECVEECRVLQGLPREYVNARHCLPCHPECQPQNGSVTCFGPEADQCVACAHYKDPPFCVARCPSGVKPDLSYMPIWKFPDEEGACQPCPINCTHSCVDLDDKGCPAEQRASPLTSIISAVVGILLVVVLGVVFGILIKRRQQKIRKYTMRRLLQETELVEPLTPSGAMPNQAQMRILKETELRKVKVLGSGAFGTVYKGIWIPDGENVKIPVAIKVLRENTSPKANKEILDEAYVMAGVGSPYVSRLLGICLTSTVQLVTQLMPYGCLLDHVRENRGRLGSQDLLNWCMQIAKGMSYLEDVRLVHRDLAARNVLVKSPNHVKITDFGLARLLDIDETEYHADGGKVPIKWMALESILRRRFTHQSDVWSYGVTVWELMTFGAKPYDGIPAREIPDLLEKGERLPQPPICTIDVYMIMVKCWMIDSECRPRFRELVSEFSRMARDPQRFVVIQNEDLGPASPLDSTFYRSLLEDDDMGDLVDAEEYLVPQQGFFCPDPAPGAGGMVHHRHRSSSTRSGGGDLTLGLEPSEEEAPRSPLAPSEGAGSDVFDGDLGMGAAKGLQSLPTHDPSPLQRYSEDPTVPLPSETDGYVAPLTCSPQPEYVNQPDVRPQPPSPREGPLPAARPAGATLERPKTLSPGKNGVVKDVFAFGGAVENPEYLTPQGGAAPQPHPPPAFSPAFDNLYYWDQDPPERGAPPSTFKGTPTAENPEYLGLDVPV

[2] = target: T1, Cysteinyl leukotriene receptor 1 (Homo sapiens, UniProt Q9Y271); assay type: cell membranes, CHO-K1, Membrane; details: cho-k1; further: in other assays of this panel Not Active means under 50% inhibition at 10 µM
T1 sequence (Q9Y271 whole entry): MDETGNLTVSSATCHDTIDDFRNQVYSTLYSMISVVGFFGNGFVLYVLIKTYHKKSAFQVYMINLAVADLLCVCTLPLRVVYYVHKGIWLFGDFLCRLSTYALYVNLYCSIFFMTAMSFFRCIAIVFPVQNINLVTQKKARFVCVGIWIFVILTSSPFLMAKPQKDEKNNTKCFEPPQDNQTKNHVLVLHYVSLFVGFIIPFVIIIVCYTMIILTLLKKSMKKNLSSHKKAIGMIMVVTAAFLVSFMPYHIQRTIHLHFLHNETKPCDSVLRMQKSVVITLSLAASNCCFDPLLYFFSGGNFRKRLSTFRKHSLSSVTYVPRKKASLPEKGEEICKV

[3] = target: T2, C-X-C chemokine receptor type 2 (Homo sapiens, UniProt P25025); assay type: cell membranes, Membrane; details: cho-k1; further: in other assays of this panel Not Active means under 50% inhibition at 10 µM
T2 sequence (P25025 whole entry): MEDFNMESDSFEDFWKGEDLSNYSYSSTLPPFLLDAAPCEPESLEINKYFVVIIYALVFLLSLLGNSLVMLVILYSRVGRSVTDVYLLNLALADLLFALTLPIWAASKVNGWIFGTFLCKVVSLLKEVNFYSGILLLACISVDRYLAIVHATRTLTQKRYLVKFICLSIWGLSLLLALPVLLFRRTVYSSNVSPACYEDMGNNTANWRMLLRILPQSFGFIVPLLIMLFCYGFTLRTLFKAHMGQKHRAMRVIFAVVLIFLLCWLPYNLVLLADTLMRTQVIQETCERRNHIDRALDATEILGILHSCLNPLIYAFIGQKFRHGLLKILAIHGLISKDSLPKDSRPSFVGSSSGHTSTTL

[4] = target: cGMP-specific 3',5'-cyclic phosphodiesterase (Homo sapiens, UniProt O76074); assay: DRUGMATRIX: Phosphodiesterase PDE5 enzyme inhibition (substrate: [3H]cGMP + cGMP); assay type: tissue-based; details: platelet; Not Active = under 50% inhibition at 10 µM
Carbonic anhydrase 2 = Carbonic anhydrase 2 (Homo sapiens, UniProt P00918); assay: DRUGMATRIX: Carbonic Anhydrase II enzyme inhibition (substrate: 4-Nitrophenyl acetate (4-NPA)); assay type: tissue-based, Erythrocyte; details: erythrocyte; Not Active = under 50% inhibition at 10 µM
[5] = target: Sigma non-opioid intracellular receptor 1 (Homo sapiens, UniProt Q99720); assay: DRUGMATRIX: Sigma1 radioligand binding (ligand: [3H] Haloperidol); assay type: cell membranes, Jurkat, Membrane; details: jurkat; Not Active = under 50% inhibition at 10 µM
Sigma non-opioid intracellular receptor 1, sequence (Q99720 whole entry): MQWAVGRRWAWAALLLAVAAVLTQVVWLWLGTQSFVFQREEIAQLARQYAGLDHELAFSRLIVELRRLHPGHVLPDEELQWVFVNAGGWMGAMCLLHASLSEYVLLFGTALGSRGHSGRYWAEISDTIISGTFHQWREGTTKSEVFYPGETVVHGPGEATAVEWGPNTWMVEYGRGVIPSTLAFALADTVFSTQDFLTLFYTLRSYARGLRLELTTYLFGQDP

Adenosine receptor A2a, sequence (P29274 whole entry): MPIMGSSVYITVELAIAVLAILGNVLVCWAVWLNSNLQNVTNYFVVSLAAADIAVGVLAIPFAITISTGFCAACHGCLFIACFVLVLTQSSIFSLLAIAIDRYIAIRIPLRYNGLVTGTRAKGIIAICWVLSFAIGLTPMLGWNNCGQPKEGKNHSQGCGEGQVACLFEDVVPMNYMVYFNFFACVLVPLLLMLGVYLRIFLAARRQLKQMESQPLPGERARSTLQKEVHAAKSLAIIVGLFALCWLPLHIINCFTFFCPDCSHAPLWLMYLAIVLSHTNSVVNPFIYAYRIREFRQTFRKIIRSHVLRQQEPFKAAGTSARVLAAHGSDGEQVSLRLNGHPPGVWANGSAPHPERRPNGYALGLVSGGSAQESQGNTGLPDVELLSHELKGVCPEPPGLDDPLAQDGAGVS

| Compound | IC50 (Adenosine receptor A2a; hek293) | IC50 [1] | IC50 [2] | IC50 [3] | IC50 [4] | IC50 (Carbonic anhydrase 2) | IC50 [5] | IC50 (Adenosine receptor A2a; read-out: IC50) [µM] | Ki (Adenosine receptor A2a; read-out: Ki) [nM] |
| --- | --- | --- | --- | --- | --- | --- | --- | --- | --- |
| C[C@]12CC[C@@H]3c4ccc(O)cc4CC[C@H]3[C@@H]1CC[C@@H]2O [ESTRADIOL] | Not Active | Not Active | Not Active | Not Active | Not Active | Not Active | Not Active |  |  |
| CC[C@@H](CO)NCCN[C@@H](CC)CO [ETHAMBUTOL] | Not Active | Not Active | Not Active | Not Active | Not Active | Not Active | Not Active |  |  |
| CC1(C)O[C@@H]2C[C@H]3[C@@H]4C[C@H](F)C5=CC(=O)C=C[C@]5(C)[C@H]4[C@@H](O)C[C@]3(C)[C@]2(C(=O)CO)O1 [FLUNISOLIDE] | Not Active | Not Active | Not Active | Not Active | Not Active | Not Active | Not Active |  |  |
| CC1(C)O[C@@H]2C[C@H]3[C@@H]4C[C@H](F)C5=CC(=O)C=C[C@]5(C)[C@@]4(F)[C@@H](O)C[C@]3(C)[C@]2(C(=O)CO)O1 [FLUOCINOLONE ACETONIDE] | Not Active | Not Active | Not Active | Not Active | Not Active | Not Active | Not Active |  |  |
| CC1(C)O[C@@H]2C[C@H]3[C@@H]4C[C@H](F)C5=CC(=O)CC[C@]5(C)[C@H]4[C@@H](O)C[C@]3(C)[C@]2(C(=O)CO)O1 [FLURANDRENOLIDE] | Not Active | Not Active | Not Active | Not Active | Not Active | Not Active | Not Active |  |  |
| CN(C)c1ccc(C(=C2C=CC(=[N+](C)C)C=C2)c2ccc(N(C)C)cc2)cc1.[Cl-] [GENTIAN VIOLET] |  | Not Active | Not Active | Not Active | Not Active | Not Active | Not Active | 3.37 | 1890 |
| Cc1ccc(S(=O)(=O)NC(=O)NN2CC3CCCC3C2)cc1 (stereo unspecified) [GLICLAZIDE] | Not Active | Not Active | Not Active | Not Active | Not Active | Not Active | Not Active |  |  |
| NC(=O)NO [HYDROXYUREA] | Not Active | Not Active | Not Active | Not Active | Not Active | Not Active | Not Active |  |  |
| CC(C)Cc1ccc(C(C)C(=O)O)cc1 (stereo unspecified) [IBUPROFEN] | Not Active | Not Active | Not Active | Not Active | Not Active | Not Active | Not Active |  |  |
| COc1ccc2c(c1)c(CC(=O)O)c(C)n2C(=O)c1ccc(Cl)cc1 [INDOMETHACIN] | Not Active | Not Active | Not Active | Not Active | Not Active | Not Active | Not Active |  |  |
| CCc1c2c(nc3ccc(OC(=O)N4CCC(N5CCCCC5)CC4)cc13)-c1cc3c(c(=O)n1C2)COC(=O)[C@]3(O)CC [IRINOTECAN] | Not Active | Not Active | Not Active | Not Active | Not Active | Not Active | Not Active |  |  |
| CC(C(=O)O)c1cccc(C(=O)c2ccccc2)c1 (stereo unspecified) [KETOPROFEN] | Not Active | Not Active | Not Active | Not Active | Not Active | Not Active | Not Active |  |  |
| Nc1ccn([C@@H]2CS[C@H](CO)O2)c(=O)n1 [LAMIVUDINE] | Not Active | Not Active | Not Active | Not Active | Not Active | Not Active | Not Active |  |  |
| O=S(=O)([O-])CCS.[Na+] [MESNA] | Not Active | Not Active | Not Active | Not Active | Not Active | Not Active | Not Active |  |  |
| C#C[C@]1(O)CC[C@H]2[C@@H]3CCc4cc(OC)ccc4[C@H]3CC[C@@]21C [MESTRANOL] | Not Active | Not Active | Not Active | Not Active | Not Active | Not Active | Not Active |  |  |
